Data as given in ChEMBL document CHEMBL1201862, “PubChem BioAssay data set” (2004).
The source made the active and inactive calls. No rule for the calls is given here.

Key:
[1] = biological target: T1, High affinity choline transporter 1 (Homo sapiens, UniProt Q9GZV3); experiment: human choline transporter blockers, potency – cell-based, 5-point CRC, membrane potential dye, dose response (AID 504840); assay type: functional
T1 sequence (Q9GZV3 whole entry): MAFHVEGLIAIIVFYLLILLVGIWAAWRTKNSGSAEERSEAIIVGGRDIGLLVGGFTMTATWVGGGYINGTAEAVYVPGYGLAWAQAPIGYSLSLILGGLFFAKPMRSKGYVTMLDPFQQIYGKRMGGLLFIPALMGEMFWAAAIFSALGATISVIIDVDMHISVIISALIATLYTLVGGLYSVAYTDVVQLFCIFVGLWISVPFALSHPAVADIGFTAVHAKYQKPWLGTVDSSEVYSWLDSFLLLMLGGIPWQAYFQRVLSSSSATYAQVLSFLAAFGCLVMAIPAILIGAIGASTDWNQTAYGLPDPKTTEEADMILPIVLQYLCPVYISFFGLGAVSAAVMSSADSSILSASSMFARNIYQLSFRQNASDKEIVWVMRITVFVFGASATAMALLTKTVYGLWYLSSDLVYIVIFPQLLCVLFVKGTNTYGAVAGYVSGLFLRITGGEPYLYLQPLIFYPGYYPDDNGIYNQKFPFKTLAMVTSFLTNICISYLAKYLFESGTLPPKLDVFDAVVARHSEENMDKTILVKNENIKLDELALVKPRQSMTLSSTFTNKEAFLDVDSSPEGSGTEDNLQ

[2] = biological target: T1, High affinity choline transporter 1; experiment: human choline transporter blockers, potency – cell-based, 10-point CRC, membrane potential dye, dose response (AID 588401); assay type: functional;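 also: membrane potential dye fluorescence of choline-evoked depolarization via CHT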

IC50 [1]: 4.77 µM (active)
IC50 [2]: 3.98 µM (active)
SMILES: CC1=NOC(=O)/C1=C/c1ccc(O)c(Br)c1
